In US6608032B1, “Medicinal compositions” (Takara Shuzo Co., Ltd., priority 1999, dated 2003):

Tests used:
[1] = tested on: RAW264.7 cells; experiment: NO production induced by LPS and IFN-γ in RAW264.7 cells (NO2− in medium, Griess); type: cell-based; conditions: 10 μl of 5 mM oligosaccharide solution per 500 μl well, added 0.5 or 5 hours before LPS and IFN-γ; 12 hours; FIG. 1
Description: RAW264.7 cells (ATCC TIB 71) were suspended in Dulbecco's modified Eagle's medium (Bio Whittaker, 12-917F) without Phenol Red containing 10% fetal calf serum and 2 mM L-glutamine (Life Technologies Oriental, Code. 25030-149) at a concentration of 3×10^5 cells/ml. 500 μl of the suspension was added to each well of a 48-well microtiter plate and the plate was incubated at 37° C. for 6 hours in the presence of 5% CO2. 10 μl of a filter-sterilized oligosaccharide solution containing agarobiose, agarotetraose or agarohexaose prepared in Referential Example 1 at a concentration of 5 mM in water was added to the well. The plate was incubated for additional 0.5 or 5 hours. 10 μl of aqueous solution containing lipopolysaccharide (LPS, Sigma, Code. L-2012) at a concentration of 5 μg/ml and interferon-γ (IFN-γ, sold by Cosmobio, Code. GZM-MG-IFN) at a concentration of 2000 U/ml was added to the well. The plate was incubated for additional 12 hours. The concentration of […] resulting from oxidation of NO in the medium was then measured.
As control groups, a group to which LPS or IFN-γ was not added and a group to which agarobiose, agarotetraose or agarohexaose was not added were provided.
After cultivation, 100 μl of 4% Griess' reagent (Sigma, Code. G4410) was added to 100 μl of the culture supernatant, and the mixture was allowed to stand for 15 minutes at room temperature. The absorbance at 490 nm was then measured. NO2^− concentration in the medium was calculated with reference to a calibration curve prepared by using NaNO2 dissolved in the same medium at a predetermined concentration. All of the measurements were carried out in triplicate.

[2] = tested on: RAW264.7 cells; experiment: LPS-induced prostaglandin E2 production in RAW264.7 cells; type: cell-based; conditions: 10 μl of 5 mM solution per 500 μl well, 0.5 or 5 hours before LPS; 12 hours; FIG. 3
Description: RAW264.7 cells (ATCC TIB 71) were suspended in Dulbecco's modified Eagle's medium (Bio Whittaker, Code. 12-604F) containing 10% fetal calf serum at a concentration of 3×10^5 cells/ml. 500 μl of the suspension was added to each well of a 48-well microtiter plate and the plate was incubated at 37° C. for 6 hours in the presence of 5% CO2. 10 μl of a filter-sterilized agarooligosaccharide solution containing agarobiose, agarotetraose or agarohexaose prepared in Referential Example 1 at a concentration of 5 mM in water was added to the well. The plate was incubated for additional 0.5 or 5 hours. 10 μl of 50 μg/ml LPS aqueous solution was then added to the well. After the plate was incubated for additional 12 hours, the amount of prostaglandin E2 was measured. As control groups, a group to which LPS was not added and a group to which agarobiose, agarotetraose or agarohexaose was not added were provided.
After cultivation, the amount of prostaglandin E2 in the culture supernatant was measured using Prostaglandin E2 ELISA Kit (Neogen, Code. 404110). All of the measurements were carried out in triplicate.

[3] = tested on: α-glucosidase; experiment: α-glucosidase inhibition with p-nitrophenyl-α-D-glucopyranoside; type: biochemical, S. cerevisiae
Description: (1) An α-glucosidase activity was measured by allowing α-glucosidase to act on p-nitrophenyl-α-D-glucopyranoside (a chromogenic substrate) and calorimetrically quantifying 4-nitrophenol released by hydrolysis.
10 μl of α-glucosidase solution [40 mU/ml, derived from S. cerevisiae, Sigma, dissolved in 10 mM phosphate buffer (pH 7.2 at 37° C.)] and 10 μl of a solution containing a test sample dissolved in 10 mM phosphate buffer (pH 7.2 at 37° C.) were mixed. 80 μl of a 1.5 mg/ml substrate solution [Sigma, dissolved in 10 mM phosphate buffer (pH 7.2 at 37° C.)] was added thereto to initiate the reaction. After reacting at 37° C. for 40 minutes, the absorbance at 410 nm was measured using Shimadzu uv2200. The remaining activity therein was calculated defining the activity observed without the addition of test sample as 100%.
Agarobiose, agarotetraose, agarohexaose and agarooctaose used as test samples were those prepared in Referential Example 1. Commercially available products of anhydrogalactose (Funakoshi), neoagarobiose (Sigma), neoagarotetraose (Funakoshi) and neoagarohexaose (Funakoshi) were used.

[4] = tested on: HL-60 Nu cells; experiment: TPA-induced intracellular peroxides in HL-60 Nu (neutrophil-like) cells; type: cell-based; conditions: 50 μl of 5 mM solution, 2 hours before TPA; 5 hours; FIG. 2
Description: HL-60 cells were added to RPMI 1640 medium (Bio Whittaker, Code. 12-702F) containing 10% fetal calf serum and 1.3% dimethyl sulfoxide (Dojindo Laboratories, Code. 346-03615) and cultured at 37° C. for 1 week in the presence of 5% CO2 to prepare cells differentiated into neutrophil-like cells (hereinafter referred to as HL-60 Nu).
Agarobiose, agarotetraose or agarohexaose obtained in Referential Example 1 was dissolved in water at a concentration of 5 mM. The solution was sterilized by filtration. HL-60 Nu cells were suspended in RPMI 1640 medium containing 10% fetal calf serum at a concentration of 2.5×10^5 cells/2.4 ml. 50 μl of one of the oligosaccharide aqueous solutions was added to a well containing the cells. The cells were cultured at 37° C. for 2 hours in the presence of 5% CO2. Then, 50 μl of a solution containing phorbol 12-myristate 13-acetate (TPA, Gibco, Code. 13139-019) at a concentration of 5 mg/ml in water was added the well. After the cells were cultured for additional 5 hours, intracellular peroxides were determined. As control groups, a group to which TPA was not added and a group to which agarobiose, agarotetraose or agarohexaose as not added were provided.
After cultivation, 10 μl of a solution containing 2′,7′-dichlorofluorescein diacetate (Sigma, Code. D6833) at a concentration of 5 mM in dimethyl sulfoxide was added to the well. The cells were cultured for additional 30 minutes. The cells were then collected by centrifugation and washed twice in phosphate buffered saline. 2′, 7′-dichlorofluorescein, which is generated in proportion to the amount of intracellular peroxides, was determined using FACScan as described in Saibo Kogaku, Bessatsu (Cell Technology, Suppl.) Jikken Protocol Series: Kassei Sanso Jikken Protocol (Experimental Protocol Series: Experimental Protocols for Active Oxigen) (1994, Shujun-sha) pp. 51-54.

Row | SMILES | NO production induced by LPS and IFN-γ [1] | prostaglandin E2 production induced by LPS [2] | Activity of inhibiting α-glucosidase (% remaining activity) ([3]; 5 μM) | Activity of inhibiting α-glucosidase (% remaining activity) ([3]; 50 μM) | Activity of inhibiting α-glucosidase (% remaining activity) ([3]; 500 μM) | Activity of inhibiting α-glucosidase (% remaining activity) ([3]; 1000 μM) | Activity of inhibiting α-glucosidase (% remaining activity) ([3]; 5000 μM) | TPA-induced generation of intracellular peroxides [4]
1 | OC[C@H]1O[C@@H](O[C@H]2[C@H]3OC[C@@H]2OC(O)[C@H]3O)[C@H](O)[C@@H](O)[C@H]1O (mixture of isomers) [Agarobiose, agarobiose] | inhibited NO production induced by LPS and IFN-γ | inhibited the prostaglandin E2 production induced by LPS | 100% | 100% | 100% | 100% | 100% | Slight inhibition
2 | OCC1OC(OC2C3COC2C(O)C(OC2C(O)C(CO)OC(OC4C5COC4C(O)C(OC4C(O)C(CO)OC(OC6C7COC6C(O)C(O)O7)C4O)O5)C2O)O3)C(O)C(O)C1O (stereo not drawn) [Agarohexaose, agarohexaose] | inhibited NO production induced by LPS and IFN-γ | inhibited the prostaglandin E2 production induced by LPS | 91% | 91% | 47% | 35% | 7% | inhibition of TPA-induced generation of intracellular peroxides was observed
3 | OCC1OC(OC2C3COC2C(O)C(OC2C(O)C(CO)OC(OC4C5COC4C(O)C(O)O5)C2O)O3)C(O)C(O)C1O (stereo not drawn) [Agarotetraose, agarotetraose] | inhibited NO production induced by LPS and IFN-γ | inhibited the prostaglandin E2 production induced by LPS | 100% | 97% | 75% | 32% | 20% | Slight inhibition
